Results taken from article PMC5378956, “Inhibition of delta-secretase improves cognitive functions in mouse models of Alzheimer's disease” (Nature Communications, 2017).
Where two headings read alike, the source gives them in different places.

Assays:
[1] = Caco-2 monolayer permeability screen; settings: human, Caco-2
Description: (§1) Supplementary Table 3: Caco-2 permeability and BBB-PAMPA permeability
(§2) For CaCo-2 permeability assay, cells were incubated with 10 µM of these reagents in
(§3) buffers for 2 h, and the receiver side buffer is removed for analysis by LC/MS/MS. Efflux […]
(§4) LLOQ: Lower Limit of Quantification; Papp: apparent permeability.

[2] = Liver microsomal stability, human; settings: human, microsomes, 0.5 h, pH 7.4
Description: (§5) Supplementary Table 4: Liver microsomal stability
(§6) Compound Species Mean Remaining Parent Mean Remaining Parent
(§7) (with NADPH) (NADPH-free)
(§8) The test agents were incubated in duplicate with microsomes at 37 °C for 30 min. The reaction contained microsomal protein in 100 mM potassium phosphate, 2 mM NADPH, 3 mM MgCl2, pH 7.4. A control was run for each test agent omitting NADPH to detect NADPH-free degradation. Data are reported as % remaining of parent compound. ND, Peak not detected due to bioanalysis issue (poor ionization).

[3] = Liver microsomal stability, mouse; settings: mouse, microsomes, 0.5 h, pH 7.4
Description: as §5, §6, §7, §8

caspase-3 = biological target: T1, caspase-3 (Homo sapiens, UniProt P42574); assay: IC50 assay with recombinant caspase-3; assay type: biochemical; settings: for IC50: mean±s.d.
T1 construct: purchased Millipore (Billerica, MA)
T1 sequence (P42574 29-175 limits assumed): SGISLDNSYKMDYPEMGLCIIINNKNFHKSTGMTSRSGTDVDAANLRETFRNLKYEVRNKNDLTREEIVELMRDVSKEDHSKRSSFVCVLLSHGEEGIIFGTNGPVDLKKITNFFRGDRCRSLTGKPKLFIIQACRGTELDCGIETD
T1 sequence (P42574 176-277 limits assumed): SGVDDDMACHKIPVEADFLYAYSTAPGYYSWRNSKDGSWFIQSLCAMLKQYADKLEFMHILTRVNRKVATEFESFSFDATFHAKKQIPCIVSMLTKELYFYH
Description: (§9) Caspase-3 and 8 – The enzyme was pre-incubated with inhibitor in assay buffer (100 mM HEPES pH 7.4, 0.1% CHAPS, 10% Sucrose) for 10 min at 37 °C.
(§10) To determine the IC50 values of the compounds towards δ-secretase, cathepsin-S, cathepsin-L, caspase-3 and caspase-8, purified recombinant enzyme was incubated in appropriate assay buffers in the presence of increasing concentrations of inhibitors. The formation of fluorescent product was monitored in duplicate reactions and the data were fit to appropriate equations to calculate the IC50 values.

[4] = biological target: T2, δ-secretase in Pala cells (Homo sapiens, UniProt Q99538); assay: δ-secretase inhibition in intact Pala cells; settings: for IC50 towards δ-secretase in Pala cells: intact cells, 2 h incubation, mean±s.d.
T2 sequence (Q99538 18-433): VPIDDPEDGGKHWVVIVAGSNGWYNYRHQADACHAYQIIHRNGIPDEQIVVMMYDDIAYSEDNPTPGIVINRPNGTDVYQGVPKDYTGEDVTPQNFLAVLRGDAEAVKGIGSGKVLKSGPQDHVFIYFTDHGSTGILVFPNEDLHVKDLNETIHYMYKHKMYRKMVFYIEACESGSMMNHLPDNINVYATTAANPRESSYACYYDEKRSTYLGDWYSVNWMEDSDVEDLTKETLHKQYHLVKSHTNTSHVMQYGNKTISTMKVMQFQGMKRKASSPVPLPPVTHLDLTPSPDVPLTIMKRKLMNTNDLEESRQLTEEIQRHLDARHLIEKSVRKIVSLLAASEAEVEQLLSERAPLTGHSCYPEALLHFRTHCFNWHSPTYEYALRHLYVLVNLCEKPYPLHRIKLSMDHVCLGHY

cathepsin-S = biological target: T3, cathepsin-S (Homo sapiens, UniProt P25774); assay: IC50 assay with recombinant cathepsin-S; assay type: biochemical; settings: for IC50: mean±s.d.
T3 construct: purchased Athens Research and Technology (Athens, GA)
Description: Cathepsin-S – 100 nM enzyme was pre-incubated with inhibitor in assay buffer (100 mM NaH2PO4 pH 6.5, 100 mM NaCl) for 10 min at 37 °C. The reaction was initiated on addition of 25 μM substrate (Boc-Val-Leu-Lys-AMC (Bachem).
as §10

cathepsin-L = cathepsin-L (Homo sapiens, UniProt P07711); assay: IC50 assay with cathepsin-L; assay type: biochemical; settings: for IC50: mean±s.d.
Description: Cathepsin-L – 100 nM enzyme was pre-incubated with inhibitor in assay buffer (100 mM Sodium Acetate pH 5.5, 1 mM EDTA) for 10 min at 37 °C. The reaction was initiated on addition of 25 μM substrate (D-Val-Leu-Lys-AMC (Bachem).
as §10

δ-secretase [5] = biological target: T4, δ-secretase (Homo sapiens, UniProt Q99538); assay: DTT and L-cysteine reversibility of δ-secretase inhibition; assay type: biochemical; settings: 10 mM DTT or L-cysteine, inhibitor at its IC50
T4 construct: tested with purified active δ-secretase, IC50 values for the top 8 candidates were calculated; purchased Sino Biological (Beijing, China)
T4 sequence (Q99538 18-323 limits assumed): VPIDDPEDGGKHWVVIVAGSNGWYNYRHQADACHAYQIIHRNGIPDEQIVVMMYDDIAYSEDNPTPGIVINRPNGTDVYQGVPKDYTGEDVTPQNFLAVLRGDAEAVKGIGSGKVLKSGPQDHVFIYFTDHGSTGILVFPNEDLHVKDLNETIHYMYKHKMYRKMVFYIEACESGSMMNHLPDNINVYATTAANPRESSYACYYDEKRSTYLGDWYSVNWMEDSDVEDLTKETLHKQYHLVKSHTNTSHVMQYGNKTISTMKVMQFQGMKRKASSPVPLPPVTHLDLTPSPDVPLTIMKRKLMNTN

δ-secretase [6] = biological target: T4, δ-secretase; assay: IC50 assay with purified recombinant δ-secretase (AEP), substrate Cbz-Ala-Ala-Asn-AMC; assay type: biochemical
Description: δ-secretase – 50 nM enzyme was pre-incubated with inhibitor in assay buffer (50 mM Sodium Citrate pH 5.5, 0.1% CHAPS, 60 mM Na2HPO4, 1 mM EDTA) for 10 min at 37 °C. The reaction was initiated on addition of 10 μM Cbz-Ala-Ala-Asn-AMC (Bachem).
as §10

caspase-8 = biological target: T5, caspase-8 (Homo sapiens, UniProt Q14790); assay: IC50 assay with recombinant caspase-8; assay type: biochemical; settings: for IC50: mean±s.d.
T5 construct: purchased Millipore (Billerica, MA)
Description: as §9, §10

HepG2 cells = assay: COMET assay and micronucleus assay in HepG2 cells; assay type: cell-based, human; settings: 50 μM, 24 h
Description: Human hepatocellular carcinoma HepG2 cells were used to determine the genotoxicity of the compounds. The Comet Assay (single cell gel electrophoresis) was performed according to the protocol provided in the Trevigen Kit (4250-050-K). Briefly, cells were pre-treated for 24 h with vehicle control or 50 μM compounds. Cells were harvested, embedded in low-melt agarose and submerged in Lysis Buffer for 45 min at 4 °C. After incubation in Alkaline Unwinding Solution (300 mM NaOH, 1 mM EDTA) for 20 min, the cells were subjected to electrophoresis in Alkaline Unwinding Solution at 300 mA for 30 min. Slides were washed with 70% ethanol, dried and stained with SYBR Green for 30 min at room temperature. Nicked DNA was measured as percentage of tail DNA. One hundred comets were scored for each sample[39].
HepG2 cells were treated with vehicle or 50 μM compound for 24 h. Cells were washed with PBS, followed byincubation at a ratio of 1:19 in a hypotonic solution (75 mM KCl/0.9% NaCl) for 10 min at 37 °C. Next, the cells were fixed with methanol:glacial acetic acid (3:1) for 15 min at 37 °C, then rinsed and dried. Cells were stained with DAPI (2 μg ml^−1) for 30 min in the dark at room temperature, rinsed with water, dried and mounted with glycerol. One thousand cells per dish were analysed for each experiment; three independent experiments were performed.

Caco-2 monolayer = Caco-2 monolayer permeability screen; settings: 10 µM, 2 h
Description: as §1, §2, §3, §4

CYP2C19 = CYP2C19 (Homo sapiens, UniProt P33261); assay: CYP inhibition screening in microsomes; settings: pH 7.4
CYP1A2 = biological target: T6, CYP1A2 (Homo sapiens, UniProt P05177); assay: CYP inhibition screening in microsomes; settings: pH 7.4
T6 sequence (P05177 1-516): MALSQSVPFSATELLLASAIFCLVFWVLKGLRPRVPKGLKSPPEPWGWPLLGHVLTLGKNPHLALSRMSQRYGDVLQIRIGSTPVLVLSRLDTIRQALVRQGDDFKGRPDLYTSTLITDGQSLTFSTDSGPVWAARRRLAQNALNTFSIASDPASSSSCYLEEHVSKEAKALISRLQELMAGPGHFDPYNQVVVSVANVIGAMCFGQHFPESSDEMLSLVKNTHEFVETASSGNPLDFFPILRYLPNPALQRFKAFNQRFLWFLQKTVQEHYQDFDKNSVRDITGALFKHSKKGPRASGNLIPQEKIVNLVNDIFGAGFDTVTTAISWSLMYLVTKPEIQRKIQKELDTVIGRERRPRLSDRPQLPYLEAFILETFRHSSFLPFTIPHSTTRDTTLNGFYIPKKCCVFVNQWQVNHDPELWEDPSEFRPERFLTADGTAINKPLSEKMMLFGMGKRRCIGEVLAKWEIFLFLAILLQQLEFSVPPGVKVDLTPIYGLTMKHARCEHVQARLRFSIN

CYP3A = assay: CYP inhibition screening in microsomes; settings: human, pH 7.4, probe testosterone
CYP3A4 = CYP3A4 (Homo sapiens, UniProt P08684); assay: CYP inhibition screening in microsomes; settings: pH 7.4, probe midazolam
CYP2C9 = CYP2C9 (Homo sapiens, UniProt P11712); assay: CYP inhibition screening in microsomes; settings: pH 7.4
CYP2D6 = CYP2D6 (Homo sapiens, UniProt P10635); assay: CYP inhibition screening in microsomes; settings: pH 7.4
[7] = purified recombinant enzyme, mean±s.d., read-out: IC50 AEP (δ-secretase)

T5 sequence (Q14790 217-374 limits assumed, species assumed): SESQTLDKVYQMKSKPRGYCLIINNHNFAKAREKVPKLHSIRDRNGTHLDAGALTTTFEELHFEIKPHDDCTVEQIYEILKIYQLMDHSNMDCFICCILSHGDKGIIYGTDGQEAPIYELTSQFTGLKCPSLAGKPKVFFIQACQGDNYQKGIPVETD
T5 sequence (Q14790 385-479 limits assumed, species assumed): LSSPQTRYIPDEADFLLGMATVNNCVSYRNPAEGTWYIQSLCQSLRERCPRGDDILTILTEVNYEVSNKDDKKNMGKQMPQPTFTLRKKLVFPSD
T3 sequence (P25774 115-331, species assumed): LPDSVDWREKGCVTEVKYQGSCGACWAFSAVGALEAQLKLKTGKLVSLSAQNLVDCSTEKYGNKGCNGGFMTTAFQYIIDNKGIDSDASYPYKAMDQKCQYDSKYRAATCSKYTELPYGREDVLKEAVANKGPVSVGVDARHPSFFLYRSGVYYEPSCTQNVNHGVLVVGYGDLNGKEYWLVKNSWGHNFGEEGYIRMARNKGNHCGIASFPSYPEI
Chain of cathepsin-L (P07711 114-333, species assumed): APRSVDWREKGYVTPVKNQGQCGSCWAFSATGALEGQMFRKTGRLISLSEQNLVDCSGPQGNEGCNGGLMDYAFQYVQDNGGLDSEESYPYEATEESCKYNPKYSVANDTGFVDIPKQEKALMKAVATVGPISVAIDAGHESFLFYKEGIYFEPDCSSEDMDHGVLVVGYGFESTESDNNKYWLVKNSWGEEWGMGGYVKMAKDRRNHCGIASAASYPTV
Chain of CYP2C9 (P11712 whole entry): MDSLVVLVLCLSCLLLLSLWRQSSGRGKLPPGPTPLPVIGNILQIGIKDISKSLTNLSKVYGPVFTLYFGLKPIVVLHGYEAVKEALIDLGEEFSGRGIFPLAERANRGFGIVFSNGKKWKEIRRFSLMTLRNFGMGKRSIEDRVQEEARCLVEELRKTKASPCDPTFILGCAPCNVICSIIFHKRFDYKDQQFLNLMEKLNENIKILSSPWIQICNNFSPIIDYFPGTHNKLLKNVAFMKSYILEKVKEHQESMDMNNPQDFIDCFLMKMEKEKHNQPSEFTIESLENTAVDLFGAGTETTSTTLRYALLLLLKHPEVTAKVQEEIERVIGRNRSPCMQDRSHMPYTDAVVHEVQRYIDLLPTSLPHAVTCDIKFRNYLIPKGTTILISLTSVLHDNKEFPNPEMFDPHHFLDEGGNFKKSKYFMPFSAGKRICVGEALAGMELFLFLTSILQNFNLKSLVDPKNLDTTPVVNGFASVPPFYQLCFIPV
Chain of CYP2C19 (P33261 whole entry): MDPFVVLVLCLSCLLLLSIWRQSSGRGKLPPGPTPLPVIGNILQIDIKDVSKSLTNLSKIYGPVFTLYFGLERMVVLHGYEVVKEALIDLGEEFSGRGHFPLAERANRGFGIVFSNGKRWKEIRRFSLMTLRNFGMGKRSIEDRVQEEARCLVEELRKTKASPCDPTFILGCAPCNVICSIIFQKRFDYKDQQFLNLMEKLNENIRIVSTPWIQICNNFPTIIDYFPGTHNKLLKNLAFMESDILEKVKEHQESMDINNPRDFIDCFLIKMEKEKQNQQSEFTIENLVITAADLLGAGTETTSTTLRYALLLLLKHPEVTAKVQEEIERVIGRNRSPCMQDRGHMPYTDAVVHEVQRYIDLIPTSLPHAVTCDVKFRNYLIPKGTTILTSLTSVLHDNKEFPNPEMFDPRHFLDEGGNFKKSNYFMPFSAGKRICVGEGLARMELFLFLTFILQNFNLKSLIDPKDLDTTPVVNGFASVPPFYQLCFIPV
Chain of CYP3A4 (P08684 whole entry): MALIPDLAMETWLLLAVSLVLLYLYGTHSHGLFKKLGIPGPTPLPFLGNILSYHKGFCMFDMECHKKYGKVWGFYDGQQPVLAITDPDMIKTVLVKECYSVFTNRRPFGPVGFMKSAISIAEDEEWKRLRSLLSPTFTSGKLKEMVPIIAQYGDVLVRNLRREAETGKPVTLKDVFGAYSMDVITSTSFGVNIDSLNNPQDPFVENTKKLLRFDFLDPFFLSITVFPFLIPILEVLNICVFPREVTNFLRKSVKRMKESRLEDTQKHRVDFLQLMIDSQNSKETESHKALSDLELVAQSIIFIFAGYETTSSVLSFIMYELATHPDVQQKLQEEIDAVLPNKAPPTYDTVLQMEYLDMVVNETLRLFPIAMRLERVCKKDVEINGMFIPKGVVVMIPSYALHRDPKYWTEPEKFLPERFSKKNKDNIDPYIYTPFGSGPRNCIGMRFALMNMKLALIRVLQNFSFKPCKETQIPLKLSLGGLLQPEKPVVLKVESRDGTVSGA
Chain of CYP2D6 (P10635 whole entry): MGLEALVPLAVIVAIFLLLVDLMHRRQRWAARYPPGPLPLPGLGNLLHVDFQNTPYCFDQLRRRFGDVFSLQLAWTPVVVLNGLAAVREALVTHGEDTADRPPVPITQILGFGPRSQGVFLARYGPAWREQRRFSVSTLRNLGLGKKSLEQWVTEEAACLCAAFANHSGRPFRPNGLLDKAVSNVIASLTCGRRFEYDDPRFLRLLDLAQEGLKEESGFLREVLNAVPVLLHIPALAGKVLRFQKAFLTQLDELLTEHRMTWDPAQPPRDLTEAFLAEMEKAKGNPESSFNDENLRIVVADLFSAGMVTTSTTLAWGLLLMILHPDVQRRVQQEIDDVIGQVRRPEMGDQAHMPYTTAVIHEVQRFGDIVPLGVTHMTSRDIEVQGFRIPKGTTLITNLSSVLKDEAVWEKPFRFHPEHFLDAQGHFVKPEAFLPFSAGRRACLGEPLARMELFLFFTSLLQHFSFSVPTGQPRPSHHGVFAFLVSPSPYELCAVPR

Row | Structure (SMILES) | Papp A→B at 2 h, 10 µM [1] | IC50 (caspase-3) | IC50 [4] | IC50 towards δ-secretase in Pala cells [4] | IC50 (cathepsin-S) | IC50 (cathepsin-L) | recovery of δ-secretase activity on addition of reducing agents (δ-secretase [5]) | IC50 (δ-secretase [6]; [7]) | IC50 (caspase-8) | also measured
1 | CNC(=C[N+](=O)[O-])NCCSCc1ccc(CN(C)C)o1 [Ranitidine, reference compound] | 0.8 ×10⁻⁶ cm/s | – | – | – | – | – | – | – | – | –
2 | CC(=O)CC(c1ccccc1)c1c(O)c2ccccc2oc1=O (stereo not shown) [Warfarin, reference compound] | 28.5 ×10⁻⁶ cm/s | – | – | – | – | – | – | – | – | Mean Remaining Parent (NADPH-free) [2]: 104%; Mean Remaining Parent (with NADPH) [2]: 96%; Papp B→A at 2 h, 10 µM [1]: 12.6 ×10⁻⁶ cm/s; Mean Remaining Parent (NADPH-free) [3]: 100%; Mean Remaining Parent (with NADPH) [3]: 91%
3 | N#CSc1cnc(N)s1 [compound 10] | – | 44.6 ± 5.01 µM | 7.86 ± 5.67 µM | slightly larger IC50 values | > 200 µM | 3.79 ± 0.29 µM | regained a substantial amount of activity | 0.71 ± 0.05 µM | > 200 µM | –
4 | CN(C)c1ccc(N2C(=O)C=CC2=O)cc1 [compound 22] | – | > 100 µM | – | – | > 100 µM | > 100 µM | – | 0.21 ± 0.01 µM | > 100 µM | genotoxicity (COMET and micronucleus assay) (HepG2 cells): show genotoxicity
5 | CCN(CC)c1ccc(CN2CCc3nc(C)[nH]c(=O)c3C2)c(OC)c1 [compound 64] | – | 15.4 ± 7.04 µM | 0.29 ± 0.21 µM | – | > 100 µM | > 100 µM | – | 2.37 µM | > 100 µM | selectivity for δ-secretase compared to caspase-3 (caspase-3): about 6 fold; A->B Papp (Caco-2 monolayer): < LLOQ; B->A Papp (Caco-2 monolayer): < LLOQ; selectivity for δ-secretase compared to cathepsin-S (cathepsin-S): over 40 fold; selectivity for δ-secretase compared to cathepsin-L (cathepsin-L): over 40 fold; inhibition at 10 min, 3 µM (CYP2C19): 31.6%; inhibition at 10 min, 10 µM (CYP2C19): 20.4%; inhibition at 10 min, 3 µM (CYP1A2): 23.7%; inhibition at 10 min, 10 µM (CYP1A2): 22.2%; inhibition at 10 min, 3 µM (CYP3A): 1.5%; inhibition at 10 min, 10 µM (CYP3A): -0.1%; inhibition at 10 min, 3 µM (CYP3A4): 0.6%; inhibition at 10 min, 10 µM (CYP3A4): 10.1%; inhibition at 10 min, 3 µM (CYP2C9): 4.6%; inhibition at 10 min, 10 µM (CYP2C9): 7.9%; selectivity for δ-secretase compared to caspase-8 (caspase-8): over 40 fold; inhibition at 10 min, 3 µM (CYP2D6): 34.6%; inhibition at 10 min, 10 µM (CYP2D6): 58.3%
6 | Sc1nnc(Nc2ccccc2)s1 [compound BB1] | – | > 200 µM | 1.57 ± 0.14 µM | slightly larger IC50 values | > 200 µM | 5.66 ± 0.36 µM | regained a substantial amount of activity | 0.13 ± 0.09 µM | 28.7 ± 11.2 µM | ligand efficiency (δ-secretase [6]): 0.75; IC50 (δ-secretase [6]; purified active δ-secretase, read-out: IC50 / potency toward δ-secretase): ~0.13 µM
